Assay type in all cases: cell-based
Test [1] concerns Candida albicans (Olomouc). In words: microbe, parasite or virus in culture. Particulars: Candida albicans; RPMI broth microdilution, 35° C., 48 hours, visual; read-out: Antifungal activity MIC C. albicans Olomouc. The protocol:
(§1) All yeasts Candida albicans (Olomouc) and ATCC MYA-2876, Candida glabrata ATCC 2001 and DSY 565, Candida dubliniensis ATCC MYA-646, Candida krusei ATCC 6258 and Candida tropicalis ATCC 750 were sub-cultured from sterile vials onto Sabouraud dextrose agar, which was composed of 40 g dextrose (Penta, Czech Republic), 10 g peptone (OXOID, Great Britain) and 17 g agar (OXOID), dissolved in 1 l of distilled water, and cultivated for 24 hours at 35° C.
(§2) All strains were stored in a way that minimizes the possibility of mutation. Candida spp. were grown overnight in liquid YPD medium which is composed of 10 g yeast extract (DIFCO, USA), 20 g peptone (OXOID), and 20 g dextrose (Penta) dissolved in 1 l distilled water. Then the overnight culture was cryogenically preserved by suspending in 50% glycerol solution (1:1) in small vials and stored at −80° C.
(§3) The inoculum was prepared by picking five colonies from 24-hour-old cultures of Candida spp. The colonies were suspended in 1 ml of sterile saline solution and vortexed for 15 seconds. Optical density of the suspension was adjusted spectrophotometrically by adding sterile saline solution to produce optical density of 0.18 at 600 nm. A working suspension was made by a 1:50 dilution followed by a 1:20 dilution of the stock suspension with RPMI 1640 broth medium which was composed of L-glutamine without NaHCO3 (BioSera, France), and with 0.165 mol.l^−1 MOPS (Duchefa, Netherland)—further as RPMI broth medium.
(§4) The broth microdilution test was performed by using sterile, disposable, multi-well microdilution plates (96-well). The peptides in the concentrations 0.625-160 μmol.l^−1 were pipetted into the wells in 100 μl volumes. Each well of the plate was inoculated with 100 μl of the diluted inoculum suspension. Final yeast density in each well was 5×10^2 up to 2.5×10^3 CFU/ml. The microdilution plates were incubated without shaking at 35° C. and observed for the presence or absence of visible growth for 48 hours.
(§5) Drug-free medium without inoculation served as negative control; the growth positive control contained inoculated drug-free medium. Amphotericin B was used as control drug to ensure quality of Candida strains.
(§6) The minimal inhibition concentrations (MICs) were visually determined 48 hours after inoculation. The MIC values were defined as the lowest concentration in which no observable growth is noticeable.
(§7) All yeast isolates were obtained from the Institute of Physiology of the Academy of Sciences of the Czech Republic. Candida albicans (Olomouc) came from the Faculty of Medicine and Dentistry, Palacý University Olomouc.
(In general: Broth dilution looks for growth in wells or tubes with falling amounts of substance.)

Test [2] deals with Candida krusei ATCC 6258. Description: microbe, parasite or virus in culture. Particulars: Pichia kudriavzevii, ATCC6258; RPMI broth microdilution, 35° C., 48 hours, visual; read-out: Antifungal activity MIC C. krusei ATCC 6258. The method, then:
as §1, §2, §3, §4, §5, §6, §7

The subject of test [3] is Candida dubliniensis ATCC MYA-646. Description: microbe, parasite or virus in culture. Particulars: Candida dubliniensis; RPMI broth microdilution, 35° C., 48 hours, visual; read-out: Antifungal activity MIC C. dubliniensis ATCC MYA-646. The protocol: as §1, §2, §3, §4, §5, §6, §7
In test [4] the test system is Candida glabrata ATCC 2001. In words: microbe, parasite or virus in culture. The note with it: Nakaseomyces glabratus, ATCC2001; RPMI broth microdilution, 35° C., 48 hours, visual; read-out: Antifungal activity MIC C. glabrata ATCC 2001. The method, then: as §1, §2, §3, §4, §5, §6, §7
Test [5] deals with Candida tropicalis ATCC 750. In words: microbe, parasite or virus in culture. The note with it: Candida tropicalis, ATCC750; RPMI broth microdilution, 35° C., 48 hours, visual; read-out: Antifungal activity MIC C. tropicalis ATCC 750. The protocol: as §1, §2, §3, §4, §5, §6, §7
For test [6], the system named is Candida albicans ATCC MYA-2876. Description: microbe, parasite or virus in culture. The note with it: Candida albicans; RPMI broth microdilution, 35° C., 48 hours, visual; read-out: Antifungal activity MIC C. albicans ATCC MYA-2876. The method, then:
as §1, §2, §3, §4, §5, §6, §7

For test [7], the system named is Candida glabrata DSY 565. Description: microbe, parasite or virus in culture. The note with it: Nakaseomyces glabratus, DSY565; RPMI broth microdilution, 35° C., 48 hours, visual; read-out: Antifungal activity MIC C. glabrata DSY 565. The protocol: as §1, §2, §3, §4, §5, §6, §7
Test [8] concerns Candida albicans (Olomouc) biofilm. In words: C. albicans biofilm, remaining metabolic activity (XTT). The protocol: Candida albicans (Olomouc) was sub-cultured overnight in YPD medium (10 g yeast extract (DIFCO, USA), 20 g peptone (OXOID), 20 g glucose (Penta) dissolved in 1 L of distilled water) at constant shaking (100 RPM) at 37° C. Next day, the overnight culture was diluted 1:100 into fresh YPD medium and incubated at constant shaking (200 RPM) at 37° C. until the mid-exponential growth phase was reached. Then the cells were harvested and washed twice by centrifugation in physiological solution (5000 RPM; 5 min). Cells were suspended in sterile salt solution and their optical density was determined at 600 nm.
A final yeast suspension was prepared at a cell density of 1×10^6 CFU (corresponding to optical density of 0.17 at 600 nm) in RPMI 1640 medium with L-glutamine (BioSera), NaHCO3 (2 g/l; Penta) and 0.165 mol.l^−1 MOPS (Duchefa)—further as RPMI broth medium 1.
Biofilms were formed on commercially available sterile, polystyrene, flat-bottomed, 96-well microtiter plates (TPP, SW). Cell suspension (100 μl) was pipetted into selected wells of a microtiter plate and incubated without shaking for 2 hours at 37° C. Afterwards, the wells were washed twice with sterile PBS buffer (1.44 g Na2HPO4, 0.24 g KH2PO4, 0.2 g KCl and 8 g NaCl in 1 l distilled water, pH=7; Penta). Fresh RPMI broth medium 1 (100 μl) was added to each well and the plate was sealed with parafilm and incubated without shaking for 48 hours at 37° C.
Planktonic and non-adherent cells were removed by threefold washing of the biofilm with sterile PBS buffer (200 μl). A twofold serial dilution was used to reach required peptide concentration (in RPMI broth medium 1) in each well. Peptide concentrations range was between 0.39-200 μmol.l^−1. Plates were then sealed with parafilm and incubated for 20 hours at 37° C.
The metabolic activity of surviving Candida cells in the treated biofilm was determined by staining with XTT (2,3-Bis(2-methoxy-4-nitro-5-sulphophenyl)-2H-tetrazolium-5-carboxanilide). Stock solution of PMS (phenazine methosulfate; 7.5 g/l; SIGMA, Czech Republic) stored at −20° C. was diluted in PBS buffer 1:100. Diluted PMS was further mixed (2:25) with stock solution of XTT (0.5 g/l; Alchimica, Slovakia) dissolved in PBS/RPMI broth medium (1:1). Mixture (100 μl) of PMS and XTT was added into treated biofilm in the wells and incubated for 90 min at 37° C. Then the intensity of staining in each well was measured as absorbance at 540 nm on a Tecan Infinite M200 Pro reader (Tecan GmbH, Austria). Remaining metabolic activity of the cells in the biofilm was expressed for each well in percentage and calculated as follows:
[formula] where A is the absorbance of tested compound, ABL is the absorbance of negative control and AC is the absorbance of control untreated biofilm. The non-inoculated wells served as negative control. Inoculated wells not treated with compound served as positive control. Amphotericin B was used as control drug to ensure quality of Candida albicans. The values of remaining metabolic activity of treated biofilms are shown at Table 5.
(In general: Tetrazolium assays rely on reduction of a dye to a coloured formazan, in cell work by metabolically active cells.)

The mark [9] stands for this setting: peptide concentration 6.25 μmol · l^−1, 20 hours.
The mark [10] stands for this setting: peptide concentration 12.5 μmol · l^−1, 20 hours.
Setting [11] is: peptide concentration 25 μmol · l^−1, 20 hours.
[12] abbreviates: peptide concentration 50 μmol · l^−1, 20 hours.
[13] abbreviates: peptide concentration 100 μmol · l^−1, 20 hours.
Setting [14] is: peptide concentration 200 μmol · l^−1, 20 hours.

Each structure is given as a SMILES string. In brackets after ≈: the same amount, converted by molar mass.

Take `OC(Cn1cncn1)(Cn1cncn1)c1ccc(F)cc1F` [Fluconazole, reference compound]: the MIC in test [1] was found to be 2 µM (≈ 0.613 µg/mL); in test [2], 516 µM (≈ 158 µg/mL); in test [3] it was 1.8 µM (≈ 0.551 µg/mL); in test [4] it was 267 µM (≈ 81.7 µg/mL); in test [5], 49.3 µM (≈ 15.1 µg/mL); in test [6], 2.2 µM (≈ 0.674 µg/mL). In test [7], the MIC came out at 950 µM (≈ 291 µg/mL). For the same compound, the “Metabolic activity of C. albicans (%)” value is 33.5% in test [8] (setting [9]); 30.8% in test [8] (setting [10]); 31.7% in test [8] (setting [11]); 30.7% in test [8] (setting [12]); 32.4% in test [8] (setting [13]); 29.2% in test [8] (setting [14]).

On to `Clc1ccccc1C(c1ccccc1)(c1ccccc1)n1ccnc1` [Clotrimazole, reference compound], for which the MIC in test [1] came out at 0.4 µM (≈ 0.138 µg/mL); in test [2] it was 1 µM (≈ 0.345 µg/mL); in test [3], 1.4 µM (≈ 0.483 µg/mL); in test [4] it was 14.2 µM (≈ 4.9 µg/mL); in test [5], 4.6 µM (≈ 1.59 µg/mL); in test [6], 0.3 µM (≈ 0.103 µg/mL). The MIC in test [7] amounted to 35 µM (≈ 12.1 µg/mL). Moreover, the “Metabolic activity of C. albicans (%)” value in test [8] (setting [9]) came to 39.7%; in test [8] (setting [10]) it was 37.6%; in test [8] (setting [11]), 34.2%; in test [8] (setting [12]), 28.4%; in test [8] (setting [13]), 21.8%; in test [8] (setting [14]), 22.2%.

For the origin of these results see patent publication US10160785B2, “Antimicrobial peptides and their use for the treatment of topical infections” (priority 2015, dated 2018).
